From PubChem BioAssay AID1963849 (Molecular Pharmacology Branch, DTP, NCI, 2024)

Tested on: 299254-011-R-J1-PDC complex spheroid viability
Test: Anticancer human tumor 299254-011-R-J1-PDC patient-derived melanoma cell line growth inhibition [POLQ]
Details: for IC50: curve of first compound; for viability, T/C: stronger effect = lower value
Procedure: Multicellular complex tumor spheroid response to Polymerase (POL) inhibitors (novobiocin, ART-558, RP6685) in combination with a variety of drugs and investigational agents in selected tumor cell lines
The POL inhibitors (novobiocin, ART-558, and RP6685) were evaluated both individually and in combination with standard of care and investigational anticancer small molecules within a complex spheroid model of solid tumors. . Complex spheroids include a stromal component modeled by human endothelial cells (HUVEC) and fibroblasts modeled by human mesenchymal stem cells (MSCs). The concentration ranges selected for each drug and investigational agent were based upon clinically achievable concentrations if the clinical Cmax of the agent was known.
Compounds. The drugs and investigational agents: novobiocin (NSC847541), ART-558 (NSC835418), RP-6685 (NSC848927), peposertib (NSC802822), ceralasertib (NSC780249), elimusertib (NSC800525), camonsertib (NSC841442), AZD-1390 (NSC803789), olaparib (NSC753686), talazoparib (NSC767125), rucaparib (NSC756644), sotorasib (NSC818433), MRTX-1133 (NSC836407), SN-38 (NSC673596), topotecan (NSC609699), epotoside (NSC141540), doxorubicin (NSC123127), gemcitabine (NSC613327), 5-fluorouracil (NSC19893), paclitaxel (NSC125973), vemurafenib (NSC761431), MSA-2 (NSC828583), SN-011 (NSC837082), adavosertib (NSC754352), prexasertib (NSC758257), carboplatin (NSC241240) and oxaliplatin (NSC266046), were obtained from the National Cancer Institute (NCI) Developmental Therapeutics Program Chemical Repository (21). The FDA-approved anticancer drug set is available from the Developmental Therapeutics Program at https://dtp.cancer.gov/organization/dscb/obtaining/. […] The stock solutions were prepared in dimethyl sulfoxide (DMSO, Sigma-Aldrich, St. Louis, MO, cat. D2650), except for the platinum compounds which were prepared in saline (Quality Biological, Gaithersburg, MD, cat. 114-055-101), at 800-fold the tested concentration and stored at -70 degrees C prior to their use. All drugs and investigational agents were tested over a range starting from a high concentration at or near the clinical Cmax and decreasing in half-log increments. If the clinical Cmax for an agent had not been determined, the highest concentration tested was 10 microM, except for SN-38, which was tested at a high concentration of 1 microM.
Cell Culture. All cells were maintained in an incubator at 37 degrees C and 5% CO2 with 95% humidity. The PDC lines were cultured according to standard operating procedures established by the NCI PDMR (https://pdmr.cancer.gov). Table 3 of the manuscript, lists the cell lines along with the number of the three cell types plated to form the mct-spheroids and media for tumor cell growth. After thawing, all PDC lines, except 997537-175-T-J1-PDC and 415267-285-R-J2-PDC, were cultured in Matrigel-coated flasks prepared with a working solution of 1X Ham's F-12 nutrient mix, without supplementation (Thermo Fisher Scientific, cat. 11765054), 100 U/mL penicillin-streptomycin (Thermo Fisher Scientific, cat. 15140122), and 2.5% Matrigel (Corning Inc., Corning, NY, cat. 354248) for the first three passages. The two PDC lines 997537-175-T-J1-PDC and 415267-285-R-J2-PDC were cultured on uncoated flasks. The 857933-349-R-J2-PDC line was cultured in 6C/Colon 1B media containing advanced DMEM/F-12 (Thermo Fisher Scientific, cat. 12634028), 10 mM HEPES (Thermo Fisher Scientific, cat. 15630080), 1X GlutaMAX supplement (Thermo Fisher Scientific, cat. 35050061), 0.1 mg/mL primocin (InvivoGen, San Diego, CA, cat. ant-pm-2), 10% defined fetal bovine serum, heat inactivated (HyClone Laboratories Inc., Logan, UT, cat. SH30070.03HI), 50% L-WRN conditioned media (ATCC, cat. CRL-3276), 1.25 mM N-Acetyl-L-cysteine (Sigma-Aldrich, cat. A9165), 10 mM nicotinamide (Sigma-Aldrich, cat. N0636), 1X B-27 supplement (Thermo Fisher Scientific, cat. 17504044), 1X N-2 supplement (Thermo Fisher Scientific, cat. […]

[1] = second compound 0.0316 µM, first compound 0.0316 µM
[2] = second compound 0.0316 µM, first compound 0.1 µM
[3] = second compound 0.0316 µM, first compound 0.316 µM
[4] = second compound 0.0316 µM, first compound 1 µM
[5] = second compound 0.0316 µM, first compound 3.16 µM
[6] = second compound 0.0316 µM, first compound 10 µM
[7] = second compound 0.1 µM, first compound 0.0316 µM
[8] = second compound 0.1 µM, first compound 0.1 µM
[9] = second compound 0.1 µM, first compound 0.316 µM
[10] = second compound 0.1 µM, first compound 1 µM
[11] = second compound 0.1 µM, first compound 3.16 µM
[12] = second compound 0.1 µM, first compound 10 µM
[13] = second compound 0.316 µM, first compound 0.0316 µM
[14] = second compound 0.316 µM, first compound 0.1 µM
[15] = second compound 0.316 µM, first compound 0.316 µM
[16] = second compound 0.316 µM, first compound 1 µM
[17] = second compound 0.316 µM, first compound 3.16 µM
[18] = second compound 0.316 µM, first compound 10 µM
[19] = second compound 1 µM, first compound 0.0316 µM
[20] = second compound 1 µM, first compound 0.1 µM
[21] = second compound 1 µM, first compound 0.316 µM
[22] = second compound 1 µM, first compound 1 µM
[23] = second compound 1 µM, first compound 3.16 µM
[24] = second compound 1 µM, first compound 10 µM
[25] = second compound 3.16 µM, first compound 0.0316 µM
[26] = second compound 3.16 µM, first compound 0.1 µM
[27] = second compound 3.16 µM, first compound 0.316 µM
[28] = second compound 3.16 µM, first compound 1 µM
[29] = second compound 3.16 µM, first compound 3.16 µM
[30] = second compound 3.16 µM, first compound 10 µM
[31] = second compound 10 µM, first compound 0.0316 µM
[32] = second compound 10 µM, first compound 0.1 µM
[33] = second compound 10 µM, first compound 0.316 µM
[34] = second compound 10 µM, first compound 1 µM
[35] = second compound 10 µM, first compound 3.16 µM
[36] = second compound 10 µM, first compound 10 µM
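Further: spheroids exposed to drugs for one week before measurement.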
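Wherever viability, T/C is given: percent viability relative to DMSO vehicle control taken as 100%.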

SMILES: CC(C)n1c(=O)n(C)c2cnc3cc(F)c(-c4ccc(OCCCN5CCCCC5)nc4)cc3c21 + Cc1cccc(N(C)C(=O)C2C(O)CCN2c2nc(C)cc(C(F)(F)F)c2C#N)c1
- IC50 (second compound 0.0316 µM): > 10 µM
- IC50 (second compound 0.1 µM): > 10 µM
- IC50 (second compound 0.316 µM): > 10 µM
- IC50 (second compound 1 µM): > 10 µM
- IC50 (second compound 3.16 µM): > 10 µM
- IC50 (second compound 10 µM): > 10 µM
- viability, T/C [1]: 98.6%
- viability, T/C [2]: 102%
- viability, T/C [3]: 84.6%
- viability, T/C [4]: 90.1%
- viability, T/C [5]: 102%
- viability, T/C [6]: 68.2%
- viability, T/C [7]: 96.2%
- viability, T/C [8]: 92.9%
- viability, T/C [9]: 90.4%
- viability, T/C [10]: 90.1%
- viability, T/C [11]: 97%
- viability, T/C [12]: 81.2%
- viability, T/C [13]: 93.9%
- viability, T/C [14]: 98.8%
- viability, T/C [15]: 89.2%
- viability, T/C [16]: 88.9%
- viability, T/C [17]: 94.1%
- viability, T/C [18]: 76.3%
- viability, T/C [19]: 92.5%
- viability, T/C [20]: 96.5%
- viability, T/C [21]: 89.1%
- viability, T/C [22]: 98.8%
- viability, T/C [23]: 93.5%
- viability, T/C [24]: 67.6%
- viability, T/C [25]: 113%
- viability, T/C [26]: 119%
- viability, T/C [27]: 90.3%
- viability, T/C [28]: 95.3%
- viability, T/C [29]: 90.4%
- viability, T/C [30]: 64.1%
- viability, T/C [31]: 87.9%
- viability, T/C [32]: 97%
- viability, T/C [33]: 106%
- viability, T/C [34]: 107%
- viability, T/C [35]: 79.3%
- viability, T/C [36]: 71.1%

SMILES: CCCS(=O)(=O)Nc1ccc(F)c(C(=O)c2c[nH]c3ncc(-c4ccc(Cl)cc4)cc23)c1F + Cc1cccc(N(C)C(=O)C2C(O)CCN2c2nc(C)cc(C(F)(F)F)c2C#N)c1
- IC50 (second compound 0.0316 µM): > 10 µM
- IC50 (second compound 0.1 µM): 8.99 µM
- IC50 (second compound 0.316 µM): 9.29 µM
- IC50 (second compound 1 µM): 9.29 µM
- IC50 (second compound 3.16 µM): > 10 µM
- IC50 (second compound 10 µM): > 10 µM
- viability, T/C [1]: 117%
- viability, T/C [2]: 95.7%
- viability, T/C [3]: 119%
- viability, T/C [4]: 109%
- viability, T/C [5]: 123%
- viability, T/C [6]: 50%
- viability, T/C [7]: 104%
- viability, T/C [8]: 107%
- viability, T/C [9]: 109%
- viability, T/C [10]: 114%
- viability, T/C [11]: 115%
- viability, T/C [12]: 44%
- viability, T/C [13]: 107%
- viability, T/C [14]: 112%
- viability, T/C [15]: 104%
- viability, T/C [16]: 110%
- viability, T/C [17]: 103%
- viability, T/C [18]: 46.3%
- viability, T/C [19]: 93.1%
- viability, T/C [20]: 103%
- viability, T/C [21]: 103%
- viability, T/C [22]: 107%
- viability, T/C [23]: 109%
- viability, T/C [24]: 46.4%
- viability, T/C [25]: 110%
- viability, T/C [26]: 124%
- viability, T/C [27]: 108%
- viability, T/C [28]: 108%
- viability, T/C [29]: 117%
- viability, T/C [30]: 52.6%
- viability, T/C [31]: 100%
- viability, T/C [32]: 110%
- viability, T/C [33]: 113%
- viability, T/C [34]: 107%
- viability, T/C [35]: 110%
- viability, T/C [36]: 52.4%
